In patent publication US9833497B2, “Human originated EGF domain proteins and use of the same” (CHENGDU SOURCEBIO LIMITED-LIABILITY COMPANY, priority 2013, dated 2017):

How the values were obtained:
Format in all cases: cell-based
E. coli DH5α = assay: Antibacterial activity: MIC and growth curve against E. coli DH5α in 96-well plate; details: minimal inhibitory concentration against E. coli DH5α; 96-well plate, 5×10^5 CFU/mL, 37° C., judged after 8 h
Outline: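 MIC taken as lowest protein level with no bacterial growth, tracked by A600 every 30 min during 37 °C, 175 rpm culture. Two-fold protein series 50-12.5 μg/mL final, triplicate wells, against 5×10^5 CFU/mL of LB-washed mid-log cells.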

E. coli BL21 = assay: MIC against Gram-negative bacteria: E. coli BL21; details: for MIC: E. coli BL21
Outline: (§1)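 Broth microdilution, LB medium, final inoculum 5×10^5 CFU/mL from McFarland 0.5 cultures. Recombinant human EGF domain proteins tested in two-fold steps, n=3. MIC: lowest concentration, no growth.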

Pseudomonas aeruginosa = assay: MIC against Gram-negative bacteria: Pseudomonas aeruginosa; details: for MIC: P. aeruginosa
Outline: as §1

Klebsiella pneumonia = assay: MIC against Gram-negative bacteria: Klebsiella pneumonia; details: for MIC: K. pneumonia
Outline: as §1

Enterobacter cloacae = assay: MIC against Gram-negative bacteria: Enterobacter cloacae; details: for MIC: E. cloacae
Outline: as §1

Aeromonas hydrophila = assay: MIC against Gram-negative bacteria: Aeromonas hydrophila; details: for MIC: A. hydrophila
Outline: as §1

Citrobacter diversus = assay: MIC against Gram-negative bacteria: Citrobacter diversus; details: for MIC: C. diversus
Outline: as §1

Moraxella catarrhalis = assay: MIC against Gram-negative bacteria: Moraxella catarrhalis; details: for MIC: M. catarrhalis
Outline: as §1

Proteus mirabilis = assay: MIC against Gram-negative bacteria: Proteus mirabilis; details: for MIC: P. mirabilis
Outline: as §1

Proteus vulgaris = assay: MIC against Gram-negative bacteria: Proteus vulgaris; details: for MIC: P. vulgaris
Outline: as §1

Serratia marcescens = assay: MIC against Gram-negative bacteria: Serratia marcescens; details: for MIC: S. marcescens
Outline: as §1

[1] = 10 h cultivation at 37° C., 5×10^5 CFU/mL
[2] = 10 h cultivation at 37° C., 5×10^5 CFU/mL, two-fold serial dilution
[3] = 96-well plate, 5×10^5 CFU/mL, 37° C., 10 h

Substance: PRT934 (DKNECLSNPCQNGGTCDNLVNGYRCTCKKGFKGYNCQ; listed as Homo sapiens)
- MIC (E. coli DH5α): 12.5 µg/mL
- MIC (E. coli BL21; 10 h cultivation at 37° C.): 25 µg/mL
- MIC (Pseudomonas aeruginosa; 10 h cultivation at 37° C.): 50 µg/mL
- MIC (Klebsiella pneumonia; 10 h cultivation at 37° C.): 12.5 µg/mL
- MIC (Enterobacter cloacae; 10 h cultivation at 37° C.): 50 µg/mL
- MIC (Aeromonas hydrophila; 10 h cultivation at 37° C.): 25 µg/mL
- MIC (Citrobacter diversus; 10 h cultivation at 37° C.): 25 µg/mL
- MIC (Moraxella catarrhalis; 10 h cultivation at 37° C.): 12.5 µg/mL
- MIC (Proteus mirabilis; 10 h cultivation at 37° C.): 50 µg/mL
- MIC (Proteus vulgaris; 10 h cultivation at 37° C.): 12.5 µg/mL
- MIC (Serratia marcescens; 10 h cultivation at 37° C.): 50 µg/mL

Substance: PRT431 (DIDECRTIPEACRGDMMCVNQNGGYLCIPRTNPVYRGPYSN; listed as Homo sapiens)
- MIC (E. coli DH5α): 50 µg/mL
- MIC (E. coli BL21; [1]): 12.5 µg/mL
- MIC (Pseudomonas aeruginosa; [1]): 50 µg/mL
- MIC (Klebsiella pneumonia; [1]): 12.5 µg/mL
- MIC (Enterobacter cloacae; [1]): 50 µg/mL
- MIC (Aeromonas hydrophila; [1]): 12.5 µg/mL
- MIC (Citrobacter diversus; [1]): 50 µg/mL
- MIC (Moraxella catarrhalis; [1]): 12.5 µg/mL
- MIC (Proteus mirabilis; [1]): 50 µg/mL
- MIC (Proteus vulgaris; [1]): 25 µg/mL
- MIC (Serratia marcescens; [1]): 12.5 µg/mL

Substance: PRT998 (VPLCAPNLCQPKQICKDQKDKANCLCPDGSPGCA; listed as Homo sapiens)
- MIC (E. coli DH5α): 12.5 µg/mL
- MIC (E. coli BL21; 10 h cultivation at 37° C.): 50 µg/mL
- MIC (Pseudomonas aeruginosa; 10 h cultivation at 37° C.): 12.5 µg/mL
- MIC (Klebsiella pneumonia; 10 h cultivation at 37° C.): 50 µg/mL
- MIC (Enterobacter cloacae; 10 h cultivation at 37° C.): 12.5 µg/mL
- MIC (Aeromonas hydrophila; 10 h cultivation at 37° C.): 50 µg/mL
- MIC (Citrobacter diversus; 10 h cultivation at 37° C.): 25 µg/mL
- MIC (Moraxella catarrhalis; 10 h cultivation at 37° C.): 12.5 µg/mL
- MIC (Proteus mirabilis; 10 h cultivation at 37° C.): 25 µg/mL
- MIC (Proteus vulgaris; 10 h cultivation at 37° C.): 50 µg/mL
- MIC (Serratia marcescens; 10 h cultivation at 37° C.): 25 µg/mL

Substance: PRT938 (DIDDCLANPCQNGGSCMDGVNTFSCLCLPGFTGDKCQ; listed as Homo sapiens)
- MIC (E. coli DH5α): 12.5 µg/mL
- MIC (E. coli BL21; 10 h cultivation at 37° C.): 50 µg/mL
- MIC (Pseudomonas aeruginosa; 10 h cultivation at 37° C.): 25 µg/mL
- MIC (Klebsiella pneumonia; 10 h cultivation at 37° C.): 12.5 µg/mL
- MIC (Enterobacter cloacae; 10 h cultivation at 37° C.): 25 µg/mL
- MIC (Aeromonas hydrophila; 10 h cultivation at 37° C.): 50 µg/mL
- MIC (Citrobacter diversus; 10 h cultivation at 37° C.): 12.5 µg/mL
- MIC (Moraxella catarrhalis; 10 h cultivation at 37° C.): 50 µg/mL
- MIC (Proteus mirabilis; 10 h cultivation at 37° C.): 12.5 µg/mL
- MIC (Proteus vulgaris; 10 h cultivation at 37° C.): 50 µg/mL
- MIC (Serratia marcescens; 10 h cultivation at 37° C.): 12.5 µg/mL

Substance: PRT1179 (DIDECASNPCLNGGHCQNEINRFQCLCPTGFSGNLCQ; listed as Homo sapiens)
- MIC (E. coli DH5α): 12.5 µg/mL
- MIC E. coli BL21 (E. coli BL21; [2]): 50 µg/mL
- MIC P. aeruginosa (Pseudomonas aeruginosa; [2]): 25 µg/mL
- MIC K. pneumonia (Klebsiella pneumonia; [2]): 12.5 µg/mL
- MIC E. cloacae (Enterobacter cloacae; [2]): 50 µg/mL
- MIC A. hydrophila (Aeromonas hydrophila; [2]): 25 µg/mL
- MIC C. diversus (Citrobacter diversus; [2]): 12.5 µg/mL
- MIC M. catarrhalis (Moraxella catarrhalis; [2]): 25 µg/mL
- MIC P. mirabilis (Proteus mirabilis; [2]): 50 µg/mL
- MIC P. vulgaris (Proteus vulgaris; [2]): 25 µg/mL
- MIC S. marcescens (Serratia marcescens; [2]): 12.5 µg/mL

Substance: PRT527 (CPCPHTNSFATGCVVNGGDVRCSCKAGYTGTQCERCAPGYFGNPQKFGGSCQP; listed as Homo sapiens)
- MIC (E. coli DH5α): 50 µg/mL
- MIC against E. coli BL21 (E. coli BL21; [3]): 12.5 µg/mL
- MIC against P. aeruginosa (Pseudomonas aeruginosa; [3]): 50 µg/mL
- MIC against K. pneumonia (Klebsiella pneumonia; [3]): 12.5 µg/mL
- MIC against E. cloacae (Enterobacter cloacae; [3]): 25 µg/mL
- MIC against A. hydrophila (Aeromonas hydrophila; [3]): 50 µg/mL
- MIC against C. diversus (Citrobacter diversus; [3]): 25 µg/mL
- MIC against M. catarrhalis (Moraxella catarrhalis; [3]): 12.5 µg/mL
- MIC against P. mirabilis (Proteus mirabilis; [3]): 25 µg/mL
- MIC against P. vulgaris (Proteus vulgaris; [3]): 50 µg/mL
- MIC against S. marcescens (Serratia marcescens; [3]): 25 µg/mL

Substance: PRT1100 (DIDECASDPCVNGGLCQDLLNKFQCLCDVAFAGERCE; listed as Homo sapiens)
- MIC (E. coli DH5α): 12.5 µg/mL
- MIC E. coli BL21 (E. coli BL21; [2]): 25 µg/mL
- MIC P. aeruginosa (Pseudomonas aeruginosa; [2]): 100 µg/mL
- MIC K. pneumonia (Klebsiella pneumonia; [2]): 25 µg/mL
- MIC E. cloacae (Enterobacter cloacae; [2]): 12.5 µg/mL
- MIC A. hydrophila (Aeromonas hydrophila; [2]): 100 µg/mL
- MIC C. diversus (Citrobacter diversus; [2]): 12.5 µg/mL
- MIC M. catarrhalis (Moraxella catarrhalis; [2]): 12.5 µg/mL
- MIC P. mirabilis (Proteus mirabilis; [2]): 12.5 µg/mL
- MIC P. vulgaris (Proteus vulgaris; [2]): 25 µg/mL
- MIC S. marcescens (Serratia marcescens; [2]): 12.5 µg/mL

Substance: PRT629 (CPCPGQSACTTIPESREVVCTHCPPGQRGRRCEVCDDGFFGDPLGLFGHPQPCHQ; listed as Homo sapiens)
- MIC (E. coli DH5α): 12.5 µg/mL
- MIC E. coli BL21 (E. coli BL21; [3]): 25 µg/mL
- MIC P. aeruginosa (Pseudomonas aeruginosa; [3]): 12.5 µg/mL
- MIC K. pneumonia (Klebsiella pneumonia; [3]): 25 µg/mL
- MIC E. cloacae (Enterobacter cloacae; [3]): 12.5 µg/mL
- MIC A. hydrophila (Aeromonas hydrophila; [3]): 12.5 µg/mL
- MIC C. diversus (Citrobacter diversus; [3]): 12.5 µg/mL
- MIC M. catarrhalis (Moraxella catarrhalis; [3]): 12.5 µg/mL
- MIC P. mirabilis (Proteus mirabilis; [3]): 12.5 µg/mL
- MIC P. vulgaris (Proteus vulgaris; [3]): 50 µg/mL
- MIC S. marcescens (Serratia marcescens; [3]): 12.5 µg/mL
